Experimental data as given in US9781928B2, “Microbicidal composition” (Dow Global Technologies LLC, priority 2016, dated 2017).

Tested on: Desulfovibrio longus ATCC 51456
Assay: Biocidal efficacy (bacterial kill) and synergy of glutaraldehyde and surfactants against anaerobic sulfate-reducing bacteria
Assay type: cell-based
Conditions: 35° C., 10^6 to 10^7 CFU/mL, salt solution
Method: Surfactants and biocides were evaluated for synergy by determining the synergy index (S.I.) of the combination. Synergy index was calculated based on the concentration required to achieve a certain level of bacterial kill when the two antimicrobial compounds (A and B) alone and in combinations. The test organism was anaerobic sulfate-reducing bacteria Desulfovibrio longus ATCC #51456. Surf. A R^1O(CH2CH(CH3)O)5(CH2CH2O)6H Surf. B R^1O(CH2CH(CH3)O)5(CH2CH2O)9H where R^1 is 2-ethylhexyl.
Inside an anaerobic chamber (Bactron anaerobic chamber), a deoxygenated sterile salt solution (3.1183 g of NaCl, 1.3082 mg of NaHCO3, 47.70 mg of KCl, 72.00 mg of CaCl2, 54.49 mg of MgSO4, 172.28 mg of Na2SO4, 43.92 mg of Na2CO3 in 1 L water) was inoculated with Desulfovibrio longus ATCC 51456 to a final bacterial concentration of 10^6 to 10^7 CFU/mL. Aliquots of this cell suspension were then treated with glutaraldehyde, and each of Surf A and B at selected active concentrations. After incubation at 35° C. for 2 hours, viable bacteria in the aliquots were enumerated using serial dilution method.
SI is calculated as follows: Ca/CA+Cb/CB=Synergy Index (“SI”)
Wherein: • Ca=Concentration of biocide A required to achieve a certain level of bacterial kill when used in combination with B • CA=Concentration of biocide A required to achieve a certain level of bacterial kill when used alone • Cb=Concentration of biocide B required to achieve a certain level of bacterial kill when used in combination with A • CB=Concentration of biocide B required to achieve a certain level of bacterial kill when used alone When the sum of Ca/CA and Cb/CB is greater than one, antagonism is indicated.

O=CCCCC=O [Glut, glutaraldehyde, (1,5-pentanedial) CAS No. 111-30-8]
Concentration (active ppm) for complete bacterial kill in 2 hours, Glut (Glut concentration alone (1:0) or in combination with Surf. A): 13.2 ppm | Concentration (active ppm) for 99.99% bacterial kill in 2 hours, Glut (Glut concentration alone (1:0) or in combination with Surf. B): 5.9 ppm

R^1O(CH2CH(CH3)O)5(CH2CH2O)6H where R^1 is 2-ethylhexyl [Surf. A]
Concentration (active ppm) for complete bacterial kill in 2 hours, Surf. A (Surf. A concentration alone (0:1) or in combination with Glut): >100 ppm

R^1O(CH2CH(CH3)O)5(CH2CH2O)9H where R^1 is 2-ethylhexyl [Surf. B]
Concentration (active ppm) for 99.99% bacterial kill in 2 hours, Surf B (Surf. B concentration alone (0:1) or in combination with Glut): >100 ppm
